In patent publication US10935552B2, “Aie luminogens for visualization and treatment of cancer” (THE HONG KONG UNIVERSITY OF SCIENCE AND TECHNOLOGY, priority 2015, dated 2021):

What was measured:
mitochondria = assay: Co-staining with commercial organelle trackers in HeLa cells (mitochondria staining); assay type: cell-based, human; conditions: HeLa, 200 nM with Mito-tracker red/Lyso-tracker red/DAPI, 20 mins
Procedure: The HeLa cells were grown overnight on a 35 mm petri dish with a cover slip. Then the HeLa cells were stained with 200 nM TPE-IQ-2O and Mito-tracker red (50 nM)/Lyso-tracker red (50 nM)/DAPI (500 nM) for 20 mins.
The DMSO solution of DPA-IQ was almost non-emissive while the aggregation state powder of this material emits strong green luminescence upon the UV excitation.
The commercially available MitoTracker Red FM is co-stained as a control together with Naph-IQ.

MDCK-II cells = assay: Cell imaging under fluorescent microscope, MDCK-II normal cells; assay type: cell-based, Canine; conditions: MDCK-II stained alone, 200 nM, 10 mins
Procedure: (§1) Cell culture: HeLa cells were cultured in the MEM containing 10% FBS and 1% antibiotics (100 units/mL penicillin and 100 µg/mL streptomycin) in a 5% CO2 humidity incubator at 37° C. COS-7, MDA-MB-231, MCF-7, and MDCK-II cells were culture in the DMEM containing 10% FBS and antibiotics (100 units/mL penicillin and 100 µg/mL streptomycin) in a 5% CO2 humidity incubator at 37° C.
(§2) Cell imaging: two different kind of cells were grown overnight on a 35 mm petri dish with a cover slip. The live cells were incubated with 200 nM of TPE-IQ-2O for 1, 5, 10, and 20 mins. In a typical experiment, 2 μL of a 10 mM stock solution of TPE-IQ-2O in DMSO was diluted to 2 mL with cell culture medium, followed by further dilution to desired concentration. The cells were imaged under a fluorescent microscope (BX41 Microscope) using the same excitation and emission filters: excitation filter=400-440 nm, dichroic mirror=455 nm, and emission filter=465 nm long pass.
(§3) Two different kinds of cells were grown overnight on a 35 mm petri dish with a cover slip. The live cells were incubated with 200 nM of TPE-IQ-2O for 10 mins. […] Condition: 200 nM 10 mins (Filter: both close; Channel 5; EX: 400-440 nm; Exposure time: bright field: 1000 ms Fluorescence: 1000 ms.

LX2 cells = assay: Cell imaging, LX2 normal cells; assay type: cell-based, human; conditions: LX2, 200 nM, 20 and 10 mins
Procedure: The LX2 cells were grown overnight on a 35 mm petri dish with a cover slip. The live cells were incubated with 200 nM of TPE-IQ-2O for 20 and 10 mins.
(§4) HepG2 cells (human hepatocarcinoma cell line), PC-9 cells (human lung adenocarcinoma cell line), Hela cells (human cervical carcinoma cell line), and LX2 cells (normal cell, human hepatic stellate cell line) were stained with 200 nM DPA-IQ for 10 min. Images were taken under the same equipment settings. Scale bar: 30 μm. Excitation wavelength: 400-440 nm.

COS-7 cells = assay: LDH cytotoxicity assay, COS-7 cells; assay type: cell-based, simian; conditions: COS-7, with or without white light irradiation
Procedure: (§5) The HeLa and COS-7 cells were seeded in 96-well plate for 24 hrs. Then a different concentration of TPE-IQ-2O was added into each well. After 30 mins TPE-IQ-2O treatment in the dark, the dye was removed. Half of the cells were treated with white light irradiation for 90 mins and the rest of cells were kept in the dark. After another 24 hrs of incubation, 10 μL of 10× lysis buffer bromide was added to untreated cells as Maximum LDH Activity, while 10 μL ultrapure water was added to other wells. After incubation at 37° C. 5% CO2 for 45 mins, 50 μL of each well sample medium was transferred to a new 96-well plate, followed by addition of 50 μL reaction mixture. 50 μL stop solution were added into each well after 30 mins incubation protected from light. Then the absorbance was achieved by plate reader.

MDA-MB-231 cells = assay: Cell imaging under fluorescent microscope, MDA-MB-231 cells; assay type: cell-based; conditions: 200 nM
Procedure: as §1, §2
as §3, with “for 20, 10, 5, and 1” for “for 10”, “nM” for “nM 10 mins”

MCF-7 cells = assay: Cell imaging under fluorescent microscope, MCF-7 cells; assay type: cell-based; conditions: 200 nM
Procedure: as §1, §2
Two different kinds of cells were grown overnight on a 35 mm petri dish with a cover slip. The live cells were incubated with 200 nM of TPE-IQ-2O for 20, 10, and 5 mins. […] Condition: 200 nM (Filter: both close; Channel 5; EX: 400-440 nm; Exposure time: bright field: 1000 ms Fluorescence: 1000 ms.

HCC827 cells = assay: Cell imaging, HCC827 cells; assay type: cell-based; conditions: HCC827, 200 nM, 20 and 10 mins
Procedure: The PC-9, HepG2, and HCC827 cells were grown overnight on a 35 mm petri dish with a cover slip. The live cells were incubated with 200 nM of TPE-IQ-2O for 20 and 10 mins. In all the experiments, the cancer cells are fluorescent in solely staining.

HeLa cells [1] = assay: Cell imaging under fluorescent microscope, HeLa cells; assay type: cell-based, human; conditions: 200 nM
Procedure: as §1, §2
Two different kinds of cells were grown overnight on a 35 mm petri dish with a cover slip. The live cells were incubated with 200 nM of TPE-IQ-20 for 20, 10, 5, and 1 mins. The Hela cells were stained by TPE-IQ-2O; the COS-7 cells were stained by TPE-IQ-2O; the Hela cells and COS-7 cells were co-cultured and stained together by TPE-IQ-2O. Condition: 200 nM (Filter: both close; Channel 5; EX: 400-440 nm; Exposure time: bright field: 1000 ms Fluorescence: 1000 ms.
Two different kinds of cells were grown overnight on a 35 mm petri dish with a cover slip. The live cells were incubated with 200 nM of TPE-IQ-2O for 10 mins. The Hela cells were stained by TPE-IQ-2O; the MDCKII cells were stained by TPE-IQ-2O; the MDA-MB-231 cells and COS-7 cells were co-cultured and stained together by TPE-IQ-2O. Condition: 200 nM 10 mins (Filter: both close; Channel 5; EX: 400-440 nm; Exposure time: bright field: 1000 ms Fluorescence: 1000 ms.
as §4

HeLa cells [2] = assay: LDH cytotoxicity assay, HeLa cells; assay type: cell-based, human
Procedure: as §5

`CCC[n+]1cc2ccc(C(=C(c3ccc(OC)cc3)c3ccc(OC)cc3)c3ccccc3)cc2c(-c2ccccc2)c1-c1ccccc1` [TPE-IQ-2O, 6-(2,2-bis(4-methoxyphenyl)-1-phenylvinyl)-3,4-diphenyl-2-propylisoquinolin-2-ium] was tested, and the Organelle selectivity (mitochondria) was “can selectively target the mitochondria”, the “Fluorescence of stained cells” value (MDCK-II cells) was “not stained” and the “Fluorescence of stained cells” value (LX2 cells) was “no obvious fluorescence”. For the same compound, the LDH cytotoxicity (COS-7 cells) was “no obvious cytotoxicity”, the Fluorescence in co-culture (MDA-MB-231 cells; MDA-MB-231 and COS-7 co-cultured and stained together) was “fluorescence only from the MDA-MB-231 cancer cell” and the “Fluorescence of stained cells” value (MDA-MB-231 cells; MDA-MB-231 stained alone, 1-20 min) was “fluorescent”. For the same compound, the Fluorescence in co-culture (MCF-7 cells; MCF-7 and COS-7 co-cultured and stained together) was “fluorescence only from the MCF-7 cancer cell”, the “Fluorescence of stained cells” value (MCF-7 cells; MCF-7 stained alone, 5-20 min) was “fluorescent” and the “Fluorescence of stained cells” value (HCC827 cells) was “fluorescent”. The Fluorescence in co-culture (HeLa cells [1]; HeLa and COS-7 co-cultured and stained together) was “fluorescence only from the Hela cancer cell”, the Fluorescence in co-culture (HeLa cells [1]; HeLa and MDCK-II grown in the same environment, 10 mins) was “fluorescence only from the Hela cancer cell” and the “Fluorescence of stained cells” value (HeLa cells [1]; HeLa stained alone, 1-20 min) was “fluorescent”. For the same compound, the LDH cytotoxicity (HeLa cells [2]; white light irradiation for 90 mins) was “HeLa cells decreased as the concentration of TPE-IQ-2O increased” and the LDH cytotoxicity (HeLa cells [2]; without white light irradiation) was “no obvious cytotoxicity”.
